Where “and” joins values, the source holds several entries; their conditions need not be identical. Equal entries are not always repeated. Toxic doses and inconclusive results are not listed. Rule for the calls: active = survival T/C of 150% or more; inactive = T/C below 125% in these data. Peptide text beside a SMILES is read from it. * marks the point of attachment. Boc = CC(C)(C)OC(=O)*; OtBu = CC(C)(C)O*
Tested on: P388 leukemia ip, CD2F1 mice, survival T/C
Test: NCI In Vivo Anticancer Drug Screen. Data for tumor model P388 Leukemia (intraperitoneal) in CD2F1 (CDF1) mice
Settings: endpoint: median survival time, higher = longer survival
How it was run: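 Mice carrying the transplanted tumor received test compound or vehicle. Survival was recorded in each group, and the value is the treated-group measurement divided by that of the vehicle-treated control group.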

[1] = dose: 50.0 mg/kg/injection, schedule: Q01DX009 (ip), vehicle: Klucel (hydroxypropylcellulose) (HPC)
[2] = dose: 100.0 mg/kg/injection, schedule: Q01DX009 (ip), vehicle: Klucel (hydroxypropylcellulose) (HPC)
[3] = dose: 200.0 mg/kg/injection, schedule: Q01DX009 (ip), vehicle: Klucel (hydroxypropylcellulose) (HPC)
[4] = dose: 50.0 mg/kg/injection, schedule: Q01DX005 (ip), vehicle: saline with Tween-80
[5] = dose: 100.0 mg/kg/injection, schedule: Q01DX005 (ip), vehicle: saline with Tween-80
[6] = dose: 100.0 mg/kg/injection, schedule: Q04DX002 (ip), vehicle: saline
[7] = dose: 200.0 mg/kg/injection, schedule: Q04DX002 (ip), vehicle: saline
[8] = dose: 400.0 mg/kg/injection, schedule: Q04DX002 (ip), vehicle: saline
[9] = dose: 50.0 mg/kg/injection, schedule: Q01DX005 (ip), vehicle: Klucel (hydroxypropylcellulose) (HPC)
[10] = dose: 100.0 mg/kg/injection, schedule: Q01DX005 (ip), vehicle: Klucel (hydroxypropylcellulose) (HPC)
[11] = dose: 200.0 mg/kg/injection, schedule: Q01DX005 (ip), vehicle: Klucel (hydroxypropylcellulose) (HPC)
[12] = dose: 50.0 mg/kg/injection, schedule: Q01DX009 (ip), vehicle: saline
[13] = dose: 100.0 mg/kg/injection, schedule: Q01DX009 (ip), vehicle: saline
[14] = dose: 50.0 mg/kg/injection, schedule: Q01DX009 (ip), vehicle: saline with Tween-80
[15] = dose: 100.0 mg/kg/injection, schedule: Q01DX009 (ip), vehicle: saline with Tween-80
[16] = dose: 200.0 mg/kg/injection, schedule: Q01DX009 (ip), vehicle: saline with Tween-80

Measured: T/C

O=C(C=C(C(F)(F)F)C(F)(F)F)c1ccc(F)cc1
inactive: dose: 6.25 mg/kg/injection, schedule: Q04DX003 (ip), vehicle: other 109 % of control | dose: 12.5 mg/kg/injection, schedule: Q04DX003 (ip), vehicle: other 104 % of control | dose: 16.5 mg/kg/injection, schedule: Q01DX009 (ip), vehicle: saline + alcohol 110 % of control | dose: 25.0 mg/kg/injection, schedule: Q01DX009 (ip), vehicle: saline + alcohol 106 % of control | dose: 25.0 mg/kg/injection, schedule: Q04DX003 (ip), vehicle: other 118 % of control | dose: 37.5 mg/kg/injection, schedule: Q01DX009 (ip), vehicle: saline + alcohol 109 % of control

COc1ccc(OC)c2c1C(=O)C=CC2=O
inactive: dose: 1.56 mg/kg/injection, schedule: Q01DX001 (ip), vehicle: saline 108 % of control | dose: 3.13 mg/kg/injection, schedule: Q01DX001 (ip), vehicle: saline 110 % of control | dose: 6.25 mg/kg/injection, schedule: Q01DX001 (ip), vehicle: saline 108 % of control

CC(C1CC2(C)OC2(CO)C(=O)O1)C1CCC2C3CC4OC45C(O)C4OC4C(=O)C5(C)C3CCC12C (stereo unspecified)
inactive: dose: 5.0 mg/kg/injection, schedule: Q01DX005 (ip), vehicle: Klucel (hydroxypropylcellulose) (HPC) 96 % of control | dose: 10.0 mg/kg/injection, schedule: Q01DX005 (ip), vehicle: Klucel (hydroxypropylcellulose) (HPC) 100 % of control | dose: 20.0 mg/kg/injection, schedule: Q01DX005 (ip), vehicle: Klucel (hydroxypropylcellulose) (HPC) 96 % of control | dose: 40.0 mg/kg/injection, schedule: Q01DX005 (ip), vehicle: Klucel (hydroxypropylcellulose) (HPC) 92 % of control | dose: 80.0 mg/kg/injection, schedule: Q01DX005 (ip), vehicle: Klucel (hydroxypropylcellulose) (HPC) 89 % of control

CCCCC(O)/C=C(C)/C=C/C=C/C(=O)N1CCCC1=O (stereo unspecified)
inactive: dose: 25.0 mg/kg/injection, schedule: Q01DX009 (ip), vehicle: Klucel (hydroxypropylcellulose) (HPC) 113 % of control | [1] 113 % of control | [2] 110 % of control | [3] 110 % of control | dose: 400.0 mg/kg/injection, schedule: Q01DX009 (ip), vehicle: Klucel (hydroxypropylcellulose) (HPC) 118 % of control

CCCC(C)(C(=O)Nc1ccc2nc(C)cc(N)c2c1)C(=O)Nc1ccc2nc(C)cc(N)c2c1
inactive: [4] 94 % of control | [5] 96 % of control

Oc1ccccc1C=Nc1ccc2nc(SCc3ccccc3)sc2c1
inactive: [1] 109 % of control | [2] 100 % of control | [3] 89 % of control

Cc1ccc(S(=O)(=O)OCC(C)(C)C)cc1
inactive: dose: 50.0 mg/kg/injection, schedule: Q04DX003 (ip), vehicle: Klucel (hydroxypropylcellulose) (HPC) 100 % of control | dose: 100.0 mg/kg/injection, schedule: Q04DX003 (ip), vehicle: Klucel (hydroxypropylcellulose) (HPC) 100 % of control | dose: 200.0 mg/kg/injection, schedule: Q04DX003 (ip), vehicle: Klucel (hydroxypropylcellulose) (HPC) 100 % of control | dose: 400.0 mg/kg/injection, schedule: Q04DX003 (ip), vehicle: Klucel (hydroxypropylcellulose) (HPC) 96 % of control

CC1(C)CC(OC(=S)S)CC(C)(C)N1O
inactive: [6] 100 % of control | [7] 98 % of control | [8] 100 % of control

c1ccc(-c2cnnc3c4ccccc4nn23)cc1
inactive: [9] 97 % of control | [10] 96 % of control | [11] 91 % of control

CSCCC(NC(=O)OC(C)(C)C)C(=O)NC(Cc1ccccc1)C(=O)NCC(=O)OC(C)(C)C (stereo not drawn) (Boc-Met-Phe-Gly-OtBu; configuration not given here)
inactive: [9] 93 % of control | [10] 97 % of control | [11] 107 % of control

c1ccc2c3c(ccc2c1)OCCOc1ccc2ccccc2c1-3
inactive: dose: 100.0 mg/kg/injection, schedule: Q04DX002 (ip), vehicle: saline with Tween-80 99 % of control | dose: 200.0 mg/kg/injection, schedule: Q04DX002 (ip), vehicle: saline with Tween-80 91 % of control | dose: 400.0 mg/kg/injection, schedule: Q04DX002 (ip), vehicle: saline with Tween-80 90 % of control

CC(=O)Oc1cc(-c2ccccc2)oc1-c1ccccc1
inactive: [6] 104 % of control | [7] 106 % of control | [8] 98 % of control

Cc1ccc2nccnc2c1
inactive: [12] 101 % of control | [13] 99 % of control | dose: 200.0 mg/kg/injection, schedule: Q01DX009 (ip), vehicle: saline 101 % of control | dose: 400.0 mg/kg/injection, schedule: Q01DX009 (ip), vehicle: saline 100 % of control

CC(C)N1CCOCC1
inactive: dose: 25.0 mg/kg/injection, schedule: Q01DX009 (ip), vehicle: saline 110 % of control | [12] 105 % of control and 100 % of control | [13] 105 % of control and 113 % of control

CN1CC[N+](C)(Cc2ccc(C[N+]3(C)CC[N+](C)(Cc4ccc(CCl)cc4)CC3)cc2)CC1 (stereo unspecified)
inactive: dose: 12.5 mg/kg/injection, schedule: Q04DX003 (ip), vehicle: saline 112 % of control | dose: 25.0 mg/kg/injection, schedule: Q04DX003 (ip), vehicle: saline 102 % of control | dose: 50.0 mg/kg/injection, schedule: Q04DX003 (ip), vehicle: saline 119 % of control

Cc1cccc2ncc([N+](=O)[O-])n12
inactive: [14] 114 % of control and 88 % of control | [15] 102 % of control and 89 % of control

CC(C)CC(N)C(=O)NC(C)C(=O)NC(CC(C)C)C(=O)O (stereo not drawn) (H-Leu-Ala-Leu-OH; configuration not given here)
inactive: dose: 25.0 mg/kg/injection, schedule: Q01DX005 (ip), vehicle: saline 101 % of control | dose: 50.0 mg/kg/injection, schedule: Q01DX005 (ip), vehicle: saline 102 % of control | dose: 100.0 mg/kg/injection, schedule: Q01DX005 (ip), vehicle: saline 101 % of control | dose: 200.0 mg/kg/injection, schedule: Q01DX005 (ip), vehicle: saline 100 % of control

CCCCCCCC/C=C\CCCCCCCCCCCC(=O)OC/C=C/COC(=O)c1ccccc1
inactive: [1] 100 % of control | [2] 95 % of control | [3] 100 % of control

O=C1/C(=C/c2cccc3ccccc23)SC(=S)N1Cc1ccco1
inactive: [14] 92 % of control | [15] 92 % of control | [16] 99 % of control

COc1cc(C(=O)N/N=C/c2cccc3ccccc23)ccc1O
inactive: [14] 86 % of control | [15] 90 % of control | [16] 90 % of control

COc1ccc(N=Cc2ccc(C(N)=S)cc2)cc1
inactive: dose: 50.0 mg/kg/injection, schedule: Q01DX001 (ip), vehicle: Klucel (hydroxypropylcellulose) (HPC) 107 % of control | dose: 100.0 mg/kg/injection, schedule: Q01DX001 (ip), vehicle: Klucel (hydroxypropylcellulose) (HPC) 102 % of control | dose: 200.0 mg/kg/injection, schedule: Q01DX001 (ip), vehicle: Klucel (hydroxypropylcellulose) (HPC) 98 % of control

NC(=O)C(Cl)(Cl)Cl
inactive: [15] 100 % of control | [16] 99 % of control | dose: 400.0 mg/kg/injection, schedule: Q01DX009 (ip), vehicle: saline with Tween-80 99 % of control

CC(C)Oc1ccc2c(c1)Sc1ccc(Cl)cc1N2
inactive: dose: 100.0 mg/kg/injection, schedule: Q04DX003 (ip), vehicle: saline with Tween-80 100 % of control | dose: 200.0 mg/kg/injection, schedule: Q04DX003 (ip), vehicle: saline with Tween-80 100 % of control | dose: 400.0 mg/kg/injection, schedule: Q04DX003 (ip), vehicle: saline with Tween-80 100 % of control

O=C(O)CC1SC2(C(=O)N(Cc3ccccc3)c3ccccc32)N(c2ccccc2)C1=O (stereo unspecified)
inactive: [4] 89 % of control | [5] 95 % of control | dose: 200.0 mg/kg/injection, schedule: Q01DX005 (ip), vehicle: saline with Tween-80 89 % of control

CC1(C)N=NC2(Br)C3CCC(C3)C12 (stereo unspecified)
inactive: dose: 100.0 mg/kg/injection, schedule: Q04DX002 (ip), vehicle: Klucel (hydroxypropylcellulose) (HPC) 102 % of control | dose: 200.0 mg/kg/injection, schedule: Q04DX002 (ip), vehicle: Klucel (hydroxypropylcellulose) (HPC) 97 % of control | dose: 400.0 mg/kg/injection, schedule: Q04DX002 (ip), vehicle: Klucel (hydroxypropylcellulose) (HPC) 100 % of control

Cc1ccc(S(=O)(=O)NC(CCCNC(=O)OCc2ccccc2)C(=O)O)cc1 (stereo unspecified)
inactive: [9] 100 % of control | [10] 99 % of control | [11] 96 % of control
